Experimental data: PMC10905675, “INX-315, a Selective CDK2 Inhibitor, Induces Cell Cycle Arrest and Senescence in Solid Tumors” (Cancer Discovery, 2023)

What was measured:
CDK2/cyclin A/A1/E1/O = experiment: SelectScreen primary screen; type: biochemical; settings: 100 nmol/L INX-315
Text: (§1) INX-315 was first evaluated in the SelectScreen Biochemical Kinase Profiling at Thermo Fisher Scientific (Madison, WI). The primary screen consisted of INX-315 dosed at a single concentration of 100 nmol/L in 1% DMSO across each platform within the SelectScreen array of assays, LanthaScreen Eu Kinase Binding Assay; AdaptaScreen; and Z'LyteScreen using preestablished conditions at Thermo Fisher Scientific as shown in Supplementary Table S2. […] The follow-up screen consisted of 10-point dose–response curves for INX-315 from 1 µmol/L to 0.0495 nmol/L.

[1] = tested on: CDK3/cyclin E1, CDK5 (inactive), CDK5/p25, CDK5/p35, CSF1R, MAPK15/ERK7, NTRK/TRKC, TYK2; experiment: SelectScreen primary screen; type: biochemical; settings: 100 nmol/L INX-315
Text: as §1

## NS(=O)(=O)c1ccc(Nc2ncc3cc4n(c3n2)C2(CCCCC2)C(=O)NN4)cc1 [INX-315]
CDK2/cyclin A/A1/E1/O
  inhibition of CDK2/cyclin A/A1/E1/O: ≥ 94%
[1]
  inhibition of CDK3/cyclin E1, CDK5 (inactive), CDK5/p25, CDK5/p35, CSF1R, MAPK15/ERK7, NTRK/TRKC, TYK2: ≥ 80%
